Among the data in patent US20060247223A1, “Non-imidazole alkylamines as histamine H3- receptor ligands and their therapeutic applications” (priority 1998, published 2006) are melting point values, retold here.

Where a name gives a salt, the structure may show the parent alone.

Consider `CC[C@@H]1CC[C@H](C)N(CCCOc2ccc(C#N)cc2)C1` (relative stereo) (as salt: oxalate) [Example 91, 1-[3-(4-cyanophenoxy)propyl]-cis-2-methyl-5-ethylpiperidine], for which the melting point was in the range of 158 to 159 °C.

Regarding `O=C(Cc1ccccc1)c1ccc(OCCCCCN2CCCC2)cc1` (as salt: oxalate) [Example 45, 1-{5-[4-(phenylacetyl)-phenoxy]-pentyl}pyrrolidine], the melting point was 177 to 178 °C.

`CC1CCN(CCCOc2ccc([N+](=O)[O-])cc2)CC1` (as salt: oxalate) [Example 86, 1-[3-(4-nitrophenoxy)propyl]4-methylpiperidine] displayed a melting point of 119 to 121 °C.

Compound `C[C@@H]1C[C@H](C)CN(CCCOc2ccc(C(=O)C3CC3)cc2)C1` (as salt: oxalate) [Example 102, 1-[3-(4-cyclopropylcarbonylphenoxy)propyl]-cis-3,5-dimethylpiperidine] yielded a melting point of 130 to 132 °C.

The compound `c1ccc(OCCCCCN2CCCC2)cc1` (as salt: oxalate) [Example 2, 1-(5-phenoxypentyl)-pyrrolidine] returned a melting point of 153 to 155 °C.

On to `CCc1ccc(OCCCN2CCCCC2)cc1` (as salt: oxalate) [Example 114, 1-[3-(4-ethylphenoxy)propyl]piperidine], for which the melting point lay within 148 to 151 °C.

As for `c1cc2c(cc1OCCCCCN1CCCC1)CCCC2` (as salt: oxalate) [Example 27, 1-{5-[2-(5,6,7,8-tetrahydronaphthyl)-oxy]-pentyl}-pyrrolidine], the melting point is 131 to 132 °C.

`c1ccc2c(OCCCCCN3CCCC3)cccc2c1` (as salt: oxalate) [Example 24, 1-[5-(1-naphthyloxy)-pentyl]-pyrrolidine] displayed a melting point of 160 to 163 °C.

`Fc1ccc(OCCCCCN2CCCC2)cc1` (as salt: oxalate) [Example 37, 1-[5-(4-fluorophenoxy)-pentyl]-pyrrolidine] returned a melting point of 149 to 150 °C.

In turn, `N#Cc1ccc(OCCCN2CCCCCC2)cc1` (as salt: oxalate) [Example 60, N-[3-(4-cyanophenoxy)-propyl]-hexamethyleneimine] yielded a melting point of 124 to 125 °C.

With `CCC(=NOC)c1ccc(OCCCN2CCC(C)CC2)cc1` (as salt: oxalate) [Example 99, 1-[3-(4-propionylphenoxy)propyl]-4-methylpiperidine methoxime], the melting point was in the range of 179 to 181 °C.

In turn, `c1ccc(OCCCCN2CCCC2)cc1` (as salt: oxalate) [Example 31, 1-(4-phenoxybutyl)-pyrrolidine] returned a melting point of 143 to 144 °C.

Regarding `CC(=O)c1ccc(OC[C@H](C)CN2CCCCC2)cc1` (as salt: oxalate) [Example 77, 1-[3-(4-acetylphenoxy)-2-R-methylpropyl]piperidine], the melting point was in the range of 149 to 151 °C.

The compound `CCN(CC)CCCOc1ccc(/C(C)=N/O)cc1` (as salt: oxalate) [Example 64, 4-(3-diethylaminopropoxy)-acetophenone-oxime] yielded a melting point of 99 to 100 °C.

In turn, `Clc1cccc(OCCCCCN2CCCC2)c1` (as salt: oxalate) [Example 25, 1-[5-(3-chlorophenoxy)-pentyl]-pyrrolidine] showed a melting point of 131 to 132 °C.

On to `C[C@@H]1CCC[C@H](C)N1CCCCCOc1ccccc1.Cl`, for which the melting point is 135 to 136 °C.

Turning to `CCC(O)c1ccc(OCCCN2CCC(C)CC2)cc1` (stereo not shown) (as salt: oxalate) [Example 97, 1-{3-[4-(1-hydroxypropyl)phenoxy]propyl}-4-methylpiperidine], the melting point was 182 to 183 °C.

`CN(C)CCCCCOc1ccc(C#N)cc1` (as salt: oxalate) [Example 53, N-[5-(4-cyanophenoxy)-pentyl]-dimethylamine] had a melting point of 148 to 149 °C.

`C[C@H]1C[C@H](C)CN(CCCCCOc2ccccc2)C1` (stereo in doubt) (as salt: oxalate) [Example 12, 1-(5-phenoxypentyl)-3,5-trans-dimethyl-piperidine] gave a melting point of 154 to 155 °C.

`c1ccc(OCCCCCCN2CCCC2)cc1` (as salt: oxalate) [Example 32, 1-(6-phenoxyhexyl)-pyrrolidine] displayed a melting point of 146 to 147 °C.

Consider `CC(=O)c1ccc(OCCCN2CCCCC2)cc1` (as salt: oxalate) [Example 65, 1-[3-(4-acetylphenoxy)-propyl]-piperidine], for which the melting point lay within 159 to 160 °C.

The compound `CC1CCCN(CCCOc2ccc([N+](=O)[O-])cc2)C1` (stereo not shown) (as salt: oxalate) [Example 83, 1-[3-(4-nitrophenoxy)propyl]-3-methylpiperidine] returned a melting point of 172 to 174 °C.

Take `C1=CCN(CCCCCOc2ccccc2)CC1` (as salt: oxalate) [Example 17, 1-(5-phenoxypentyl)-1,2,3,6-tetrahydropyridine]: the melting point lay within 177 to 179 °C.

Turning to `Cc1ccc(OCCCCCN2CCCC2)cc1` (as salt: oxalate) [Example 21, 1-[5-(4-methylphenoxy)-pentyl]-pyrrolidine], the melting point was in the range of 138 to 140 °C.

`CCC(=O)c1ccc(OCCCN2CCC(C)CC2)cc1` (as salt: oxalate) [Example 94, 1-[3-(4-propionylphenoxy)propyl]-4-methylpiperidine] yielded a melting point of 163 to 165 °C.

Compound `N#Cc1ccc(OCCCCCN2CCCCC2)cc1` (as salt: oxalate) [Example 52, 1-[5-(4-cyanophenoxy)-pentyl]-piperidine] yielded a melting point of 115 to 116 °C.

On to `CCCN(CCC)CCCOc1ccc(C#N)cc1` (as salt: oxalate) [Example 62, N-[3-(4-cyanophenoxy)-propyl]-dipropylamine], for which the melting point was 127 to 128 °C.

For the compound `C[C@@H]1C[C@H](C)CN(CCCCCOc2ccccc2)C1` (as salt: oxalate) [Example 13, 1-(5-phenoxypentyl)-3,5-cis-dimethyl-piperidine], the melting point is 154 to 155 °C.

In turn, `CCN(C)CCCCCOc1ccccc1` (as salt: oxalate) [Example 3, N-methyl-N-(5-phenoxypentyl)-ethylamine] gave a melting point of 122 to 124 °C.

In the case of `N#Cc1cccc(OCCCCCN2CCCC2)c1` (as salt: oxalate) [Example 41, 1-[5-(3-cyanophenoxy)-pentyl]-pyrrolidine], the melting point was in the range of 119 to 120 °C.

In the case of `CC1CCCCN1CCCOc1ccc(C#N)cc1.Cl` (stereo not shown), the melting point fell in the range of 177 to 180 °C.

As for `O=C(c1ccccc1)c1ccc(OCCCCCN2CCCC2)cc1` (as salt: oxalate) [Example 44, 1-[5-(4-benzoylphenoxy)-pentyl]-pyrrolidine], the melting point fell in the range of 141 to 142 °C.

`CC(=O)c1ccc(OCCCN2CCCC(C)C2)cc1` (stereo not shown) (as salt: oxalate) [Example 66, 1-[3-(4-acetylphenoxy)-propyl]-3-methyl-piperidine] came in with a melting point of 143 to 144 °C.

On to `O=[N+]([O-])c1ccc(OCCCN2CCCCC2)cc1` (as salt: oxalate) [Example 109, 1-[3-(4-nitrophenoxy)propyl]piperidine], for which the melting point lay in the range of 148 to 151 °C.

Compound `CCOC(=O)C1CCCN(CCCCCOc2ccccc2)C1` (stereo not shown) (as salt: oxalate) [Example 16, 3-carboethoxy-1-(5-phenoxypentyl)-piperidine] showed a melting point of 117 to 118 °C.

As for `CCC(=O)c1ccc(OCCCN2CCCC(C)C2)cc1` (stereo not shown) (as salt: oxalate) [Example 88, 1-[3-(4-propionylphenoxy)propyl]-3-methylpiperidine], the melting point fell in the range of 135 to 136 °C.

Compound `c1cc2c(c(OCCCCCN3CCCC3)c1)CCCC2` (as salt: oxalate) [Example 30, 1-{5-[1-(5,6,7,8-tetrahydronaphthyl)-oxy]-pentyl}-pyrrolidine] returned a melting point of 148 to 149 °C.

For `O=[N+]([O-])c1cccc(OCCCCCN2CCCC2)c1` (as salt: oxalate) [Example 36, 1-[5-(3-nitrophenoxy)-pentyl]-pyrrolidine], the melting point lay within 130 to 131 °C.

With `c1ccc(-c2ccc(OCCCCCN3CCCC3)cc2)cc1` (as salt: oxalate) [Example 26, 1-[5-(4-phenylphenoxy)-pentyl]-pyrrolidine], the melting point lay in the range of 189 to 190 °C.

With `CCN(CC)CCCOc1ccc([N+](=O)[O-])cc1` (as salt: oxalate) [Example 42, N-[3-(4-nitrophenoxy)-propyl]-diethylamine], the melting point was in the range of 160 to 161 °C.

On to `COC(=O)c1ccc(OCCCN2CCCCC2)cc1` (as salt: oxalate) [Example 103, 1-[3-(4-carbomethoxyphenoxy)propyl]piperidine], for which the melting point lay in the range of 156 to 158 °C.

`CC(C)C(=O)c1ccc(OCCCN2CCCCC2)cc1` (as salt: oxalate) [Example 72, 1-[3-(4-isobutyrylphenoxy)-propyl]-piperidine] gave a melting point of 121 to 122 °C.

`C[C@H]1C[C@H](C)CN(CCCOc2ccc(C(=O)C3CC3)cc2)C1` (relative stereo) (as salt: oxalate) [Example 101, 1-[3-(4-cyclopropanecarbonylphenoxy)propyl]-trans-3,5 dimethylpiperidine] came in with a melting point of 136 to 138 °C.

For the compound `CCCC1CCN(CCCCCOc2ccccc2)CC1` (as salt: oxalate) [Example 8, 1-(5-phenoxypentyl)-4-propyl-piperidine], the melting point lay within 165 to 166 °C.

For the compound `C[C@H]1C[C@H](C)CN(CCCOc2ccc(C#N)cc2)C1` (relative stereo) (as salt: oxalate) [Example 100, 1-[3-(4-cyanophenoxy)propyl]-trans-3,5-dimethylpiperidine], the melting point lay in the range of 163 to 165 °C.

Take `CCCC(=O)c1ccc(OCCCN2CCCCC2)cc1` (as salt: oxalate) [Example 74, 1-[3-(4-buyrylphenoxy)propyl]piperidine]: the melting point was in the range of 138 to 139 °C.
